Measurements taken from US10426806B1, “Anti-obesity effect of Borago officinalis linn. extracts to prevent and treat metabolic disorders” (priority 2018, dated 2019).

Assays:
Format in all cases: in vivo, Wistar rats
[1] = tested on: high fat diet rats; assay: Preventive study: high fat diet rats given extract or standard drug for 8 weeks; conditions: for Average Food intake / Average body weight / Cholestrol / HDL / LDL / Tri-glyceride / VLDL: 8 weeks preventive study; for FBG (fasting blood glucose level): preventive study; for Cholestrol / HDL / LDL / Tri-glyceride / VLDL: serum
Description: (§1) Thirty male Wistar rats (210-220 g) were obtained from the animal house facility of Dr. Panjwani Center for Molecular Medicine and Drug Research (ICCBS). All animals were kept under standard conditions of temperature and humidity with a 12 h light/dark cycle. This study was approved by the Ethical Committee of International Center for Chemical and Biological Sciences (Protocol #: 2015-0011). After one week of acclimation period, rats were randomly divided into two groups. The control group was fed with normal diet (D12450B, Research Diets, USA), whereas the other groups were fed with high-fat diet (D12451, Research Diets, USA) for a period of 16-week. After 10 weeks, biochemical parameters were evaluated regularly to establish whether the model has developed the symptoms of weight gain and metabolic syndrome.
After a period of 16 weeks, the group of rats on high fat diet (HF) have developed symptoms of metabolic disorders, along with insulin resistance. The HF fed rats were then sub-divided into […] groups of three rats each, i.e. Group 1 (PA), Control; animals in this group received LFD, and distilled water. Group 2, Pathological control (PC); animals in this group received HFD, and distilled water. Group 3 (PO); animals in this group received HFD, and standard drug Orlistat (100 mg/kg/day). Group 4 (PS); animals in this group received HFD, and standard drug Sibutramine (5 mg/kg/day). Group 5 (PC1); animals in this group received HFD, and B. officinalis extract (150 mg/kg/day). Group 6 (PC2); animals in this group received HFD, and B. officinalis extract (300 mg/kg/day).
Body weights were recorded weekly throughout the experiment. The food intake was calculated by using following formula, as described by Ghezzi et al, 2012:
[…] Liver and pancreas samples were prepared and stained with hematoxylin and eosin; the liver was excised and fixed in buffered formalin. The sectioned liver tissue segments were stained with hematoxylin-eosin (H-E), and observed under light microscope.
(§2) Blood glucose, serum insulin, total cholesterol, triglycerides, HDL, LDL, very low density lipoproteins […], urea, creatinine, aspartate aminotransferase […], alkaline phosphatase (ALP), serum glutamic pyruvic transaminase (SGPT), and direct and total bilirubin were estimated. Fasting blood glucose levels were measured using glucometer (AccuChek Performa, Australia). Fasting insulin levels were quantified using ultra sensitive rat insulin ELISA kit (Crystal Chem, Downers Grove, USA). Insulin sensitivity was evaluated using Homeostatic Model Assessment (HOMA). Serum total cholesterol, triglycerides, HDL, LDL, VLDL, urea, creatinine, AST, ALP, SGPT, and direct and total bilirubin were analyzed using automatic analyzer (Hitachi, Roche Diagnostics 902, Tokyo, Japan).

[2] = tested on: high-fat diet induced-obese rats; assay: Therapeutic study: high-fat diet induced-obese rats treated for 12 weeks; conditions: for Average Food intake / Average body weight / FBG (fasting blood glucose level) / Cholesterol / HDL / LDL / Triglycerides / VLDL: obese rats, 12 weeks of treatment; for Average food intake of rats: TO, TS, TC1 and TC2 treated groups, 12 weeks, HFD; for Cholesterol / HDL / LDL / Triglycerides / VLDL: serum
Description: as §1
(§3) Whereas for therapeutic studies the animal groups were further sub-divided into following groups which are as follow: Group 1 (TA), Control; animals in this group received LFD, and distilled water. Group 2 (TC), Pathological control; animals in this group received HFD, and distilled water. Groups 3 (TO), High fat diet induced obese animals in this group received standard drug Orlistat (100 mg/kg/day). Group 4 (TS): High fat diet induced obese animals in this group received standard drug Sibutramine (5 mg/kg/day). Group 5 (TC1): High fat diet induced obese animals in this group received B. officinalis extract (150 mg/kg/day). Group 6 (TC2): High fat diet induced obese animals in this group received B. officinalis extract (300 mg/kg/day).
Body weights were recorded weekly throughout the experiment. The food intake was calculated by using following formula, as described by Ghezzi et al, 2012: […]
(§4) For biochemical analysis after 16 weeks of experimental diet, the blood samples were taken from the tail vein after an overnight fast, whereas after 12 weeks of treatment period, rats were subjected to anesthesia, and blood was drawn by cardiac puncture. Liver and pancreas samples were prepared and stained with hematoxylin and eosin; the liver was excised and fixed in buffered formalin. The sectioned liver tissue segments were stained with hematoxylin-eosin (H-E), and observed under light microscope.
as §2
In therapeutic study, we investigated the capacity of B. officinalis extracts to reduce the weight of high fat diet induced obese rats, and to improve the key biochemical parameters in metabolic disorders.
Obese rats were treated with Borago officinalis extracts, at two different doses i.e. 150 mg/kg, and 300 mg/kg of body weight for 12 weeks. During these 12 weeks they were also fed HFD.

[3] = tested on: high-fat diet induced-obese rats; assay: Evaluation of renal and liver toxicity after 12 weeks of treatment (therapeutic study); conditions: 5 mg/kg (TS)
Description: as §3, §4, §2
Evaluation of Renal and Liver Toxicity of Borago officinalis Extract

CC(C)CC(N(C)C)C1(c2ccc(Cl)cc2)CCC1 (stereo not shown) [Sibutramine]
Average Food intake ([1]; 5 mg/kg (PS)): 5.34 g/100 g | Average body weight ([1]; 5 mg/kg (PS)): 251 ± 0.11 g | FBG (fasting blood glucose level) ([1]; 5 mg/kg (PS)): 76 ± 2.12 mg/dL | Cholestrol ([1]; 5 mg/kg (PS)): 65 ± 0.13 mg/dL | HDL ([1]; 5 mg/kg (PS)): 59 ± 0.16 mg/dL | LDL ([1]; 5 mg/kg (PS)): 14 ± 0.68 mg/dL | Tri-glyceride ([1]; 5 mg/kg (PS)): 51 ± 0.19 mg/dL | VLDL ([1]; 5 mg/kg (PS)): 9 ± 0.8 mg/dL | Average Food intake ([2]; 5 mg/kg (TS)): 4.20 g/100 g | Average body weight ([2]; 5 mg/kg (TS)): 361 ± 6.43 g | FBG (fasting blood glucose level) ([2]; 5 mg/kg (TS)): 80 ± 0.12 mg/dL | Average food intake of rats [2]: decrease | Cholesterol ([2]; 5 mg/kg (TS)): 65 ± 0.13 mg/dL | HDL ([2]; 5 mg/kg (TS)): 59 ± 0.16 mg/dL | LDL ([2]; 5 mg/kg (TS)): 14 ± 0.68 mg/dL | Triglycerides ([2]; 5 mg/kg (TS)): 51 ± 0.19 mg/dL | VLDL ([2]; 5 mg/kg (TS)): 9 ± 0.8 mg/dL | ALP [3]: 116 ± 0.14 U/L | ALT [3]: 85 ± 0.009 U/L | Creatinine [3]: 0.49 ± 0.02 mg/dL | SGPT [3]: 38 ± 3.34 U/L | Total Bilirubin [3]: 0.15 ± 0.01 mg/dL | Urea [3]: 31 ± 2.42 mg/dL

CCCCCCCCCCC[C@@H](C[C@@H]1OC(=O)[C@H]1CCCCCC)OC(=O)[C@H](CC(C)C)NC=O [Orlistat]
Average Food intake ([1]; 100 mg/kg (PO)): 4.23 g/100 g | Average body weight ([1]; 100 mg/kg (PO)): 256 ± 0.10 g | FBG (fasting blood glucose level) ([1]; 100 mg/kg (PO)): 79 ± 1.04 mg/dL | Cholestrol ([1]; 100 mg/kg (PO)): 68 ± 3.66 mg/dL | HDL ([1]; 100 mg/kg (PO)): 52 ± 3.04 mg/dL | LDL ([1]; 100 mg/kg (PO)): 15 ± 0.41 mg/dL | Tri-glyceride ([1]; 100 mg/kg (PO)): 52 ± 0.16 mg/dL | VLDL ([1]; 100 mg/kg (PO)): 9 ± 0.87 mg/dL | Average Food intake ([2]; 100 mg/kg (TO)): 3.18 g/100 g | Average body weight ([2]; 100 mg/kg (TO)): 356 ± 4.63 g | FBG (fasting blood glucose level) ([2]; 100 mg/kg (TO)): 84 ± 0.17 mg/dL | Average food intake of rats [2]: decrease | Cholesterol ([2]; 100 mg/kg (TO)): 68 ± 3.66 mg/dL | HDL ([2]; 100 mg/kg (TO)): 52 ± 3.04 mg/dL | LDL ([2]; 100 mg/kg (TO)): 15 ± 0.41 mg/dL | Triglycerides ([2]; 100 mg/kg (TO)): 52 ± 0.16 mg/dL | VLDL ([2]; 100 mg/kg (TO)): 9 ± 0.87 mg/dL
